Source: US12458021B2, “Microbiocidal derivatives” (SYNGENTA CROP PROTECTION AG, priority 2019, dated 2025)

Assays:
[1] = tested on: Puccinia recondita f. sp. tritici; experiment: Puccinia recondita f. sp. tritici / wheat / leaf disc curative (brown rust); format: in vivo; details: foliar, wheat leaf segments cv. Kanzler, compound applied 1 day after inoculation, assessed 6-8 days after application, read-out: control of Puccinia recondita f. sp. tritici, curative (percent disease control compared to untreated)
Experimental: Example B10: Puccinia recondita f. sp. tritici/Wheat/Leaf Disc Curative (Brown Rust) Wheat leaf segments cv. Kanzler are placed on agar in multiwell plates (24-well format). The leaf segments are inoculated with a spore suspension of the fungus. Plates are stored in darkness at 19° C. and 75% rh. The formulated test compound diluted in water is applied 1 day after inoculation. […] […]-185.

[2] = tested on: Blumeria graminis f. sp. tritici (Erysiphe graminis f. sp. tritici); experiment: Blumeria graminis f. sp. tritici / wheat / leaf disc preventative (powdery mildew on wheat); format: in vivo; details: foliar, wheat leaf segments cv. Kanzler, inoculated 1 day after application, assessed 6-8 days after application, read-out: control of Blumeria graminis f. sp. tritici (percent disease control compared to untreated)
From the text: Example B4: Blumeria graminis f. sp. tritici (Erysiphe graminis f. sp. tritici)/Wheat/Leaf Disc Preventative (Powdery Mildew on Wheat) Wheat leaf segments cv. Kanzler are placed on agar in a multiwell plate (24-well format) and sprayed with the formulated test compound diluted in water. The leaf disks are inoculated by shaking powdery mildew infected plants above the test plates 1 day after application. […] […]-192.

[3] = tested on: Sclerotinia sclerotiorum; experiment: Sclerotinia sclerotiorum / liquid culture (cottony rot); format: cell-based; details: PDB potato dextrose broth, mycelia fragments, 24° C., 3-4 days after application, read-out: control of Sclerotinia sclerotiorum (inhibition of growth, photometric)
Experimental: Example B14: Sclerotinia sclerotiorum/Liquid Culture (Cottony Rot) Mycelia fragments of a newly grown liquid culture of the fungus are directly mixed into nutrient broth (PDB potato dextrose broth). After placing a (DMSO) solution of test compound into a microtiter plate (96-well format) the nutrient broth containing the fungal material is added. The test plates are incubated at 24° C. and the inhibition of growth is determined photometrically 3-4 days after application.

[4] = tested on: Pyrenophora teres; experiment: Pyrenophora teres / barley / leaf disc preventative (net blotch); format: in vivo; details: foliar, barley leaf segments cv. Hasso, inoculated 2 days after application, assessed 5-7 days after application, read-out: control of Pyrenophora teres (disease control compared to untreated)
Summary of the method: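 Barley cv. Hasso leaf discs on agar were sprayed with diluted formulated compound, then inoculated with spore suspension 2 days later. Incubation at 20 °C, 65% rh, 12 h light/dark; disease control versus untreated assessed 5-7 days after application.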

[5] = tested on: Puccinia recondita f. sp. tritici; experiment: Puccinia recondita f. sp. tritici / wheat / leaf disc preventative (brown rust); format: in vivo; details: foliar, wheat leaf segments cv. Kanzler, inoculated 1 day after application, assessed 7-9 days after application, read-out: control of Puccinia recondita f. sp. tritici, preventative (percent disease control compared to untreated)
Summary of the method: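 Wheat leaf segments (cv. Kanzler) on agar were sprayed with formulated compound, then inoculated with spores 1 day later. Segments were incubated at 19 °C, 75% rh with 12 h light/dark. Percent disease control versus untreated was scored 7–9 days after application.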

[6] = tested on: Alternaria solani; experiment: Alternaria solani / tomato / leaf disc (early blight); format: in vivo; details: foliar, tomato leaf disks cv. Baby, inoculated 2 days after application, assessed 5-7 days after application, read-out: control of Alternaria solani (percent disease control compared to untreated)
Experimental: Example B1: Alternaria solani/Tomato/Leaf Disc (Early Blight) Tomato leaf disks cv. Baby are placed on agar in multiwell plates (24-well format) and sprayed with the formulated test compound diluted in water. The leaf disks are inoculated with a spore suspension of the fungus 2 days after application. The inoculated leaf disks are incubated at 23° C./21° C. […] […]-185.

[7] = tested on: Mycosphaerella graminicola (Septoria tritici); experiment: Mycosphaerella graminicola (Septoria tritici) / liquid culture (Septoria blotch); format: cell-based; details: Zymoseptoria tritici, PDB potato dextrose broth, 24° C., 4-5 days after application, read-out: control of Mycosphaerella graminicola (inhibition of growth, photometric)
Summary of the method: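 Fungal growth inhibition was read photometrically 4-5 days after application. Compound was dosed from a DMSO solution into liquid cultures of spores in potato dextrose broth, incubated at 24° C.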

[8] = tested on: Magnaporthe grisea (Pyricularia oryzae); experiment: whole plant or invertebrate; format: in vivo; details: foliar, read-out: control of Magnaporthe grisea (percent disease control compared to untreated)
[9] = tested on: Glomerella lagenarium (Colletotrichum lagenarium); experiment: Glomerella lagenarium (Colletotrichum lagenarium) / liquid culture (anthracnose); format: cell-based; details: Colletotrichum orbiculare, PDB potato dextrose broth, 24° C., 3-4 days after application, read-out: control of Glomerella lagenarium (inhibition of growth, photometric)
Summary of the method: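 Fungal growth inhibition measured photometrically 3-4 days post-application at 24° C. Spores were mixed directly into potato dextrose broth and dispensed onto test compound supplied in DMSO.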

[10] = tested on: Monographella nivalis (Microdochium nivale); experiment: Monographella nivalis (Microdochium nivale) / liquid culture (foot rot cereals); format: cell-based; details: PDB potato dextrose broth, 24° C., 4-5 days after application, read-out: control of Monographella nivalis (inhibition of growth, photometric)
Summary of the method: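 Growth inhibition measured by photometry 4-5 days post-application at 24° C. Compound was dispensed as DMSO solution, then PDB broth containing conidia from cryogenic storage was added.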

[11] = tested on: Phaeosphaeria nodorum (Septoria nodorum); experiment: Phaeosphaeria nodorum (Septoria nodorum) / wheat / leaf disc preventative (glume blotch); format: in vivo; details: Parastagonospora nodorum, foliar, wheat leaf segments cv. Kanzler, inoculated 2 days after application, assessed 5-7 days after application, read-out: control of Phaeosphaeria nodorum (percent disease control compared to untreated)
Summary of the method: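 Wheat cv. Kanzler leaf discs on agar were sprayed with formulated compound diluted in water and inoculated with spores 2 days later. Discs were kept at 20° C, 75% rh, 12 h light/dark; percent disease control versus untreated was scored 5-7 days after application.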

[12] = tested on: Botryotinia fuckeliana (Botrytis cinerea); experiment: Botryotinia fuckeliana (Botrytis cinerea) / liquid culture (gray mould); format: cell-based; details: Vogels broth, 24° C., 3-4 days after application, read-out: control of Botryotinia fuckeliana (inhibition of growth, photometric)
Summary of the method: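 Botrytis cinerea conidia in Vogels broth were added to compound supplied as DMSO solution. Plates were incubated at 24 °C, and growth inhibition was read photometrically 3-4 days after application.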

[13] = tested on: Mycosphaerella arachidis (Cercospora arachidicola); experiment: Mycosphaerella arachidis (Cercospora arachidicola) / liquid culture (early leaf spot); format: cell-based; details: PDB potato dextrose broth, 24° C., 4-5 days after application, read-out: control of Mycosphaerella arachidis (inhibition of growth, photometric)
Summary of the method: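 Conidia from cryogenic storage suspended in potato dextrose broth and added to compound in DMSO. Incubation at 24° C; growth inhibition read photometrically 4-5 days after application.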

[14] = tested on: Fusarium culmorum; experiment: microbe, parasite or virus in culture; format: cell-based; details: read-out: control of Fusarium culmorum (inhibition of growth, photometric)

COc1ccc(Nc2cc(F)nc(F)c2)nc1C(=O)NC1CCC1(C)C (centres unmarked) [Compound P-4, 6-[(2,6-difluoro-4-pyridyl)amino]-N-(2,2-dimethylcyclobutyl)-3-methoxy-pyridine-2-carboxamide]
≥ 80%: pest or weed control at 200 ppm [1] | pest or weed control at 200 ppm [2] | inhibition at 20 ppm [3] | pest or weed control at 200 ppm [4] | pest or weed control at 200 ppm [5] | pest or weed control at 200 ppm [6] | inhibition at 20 ppm [7] | pest or weed control at 200 ppm [8] | inhibition at 20 ppm [9] | inhibition at 20 ppm [10] | pest or weed control at 200 ppm [11]

COc1ccc(Nc2cc(F)cc(F)c2)nc1C(=O)NC(C)(C)C [Compound P-93, N-tert-butyl-6-(3,5-difluoroanilino)-3-methoxy-pyridine-2-carboxamide]
≥ 80%: pest or weed control at 200 ppm [1] | pest or weed control at 200 ppm [2] | pest or weed control at 200 ppm [4] | pest or weed control at 200 ppm [5] | pest or weed control at 200 ppm [6] | inhibition at 20 ppm [7] | pest or weed control at 200 ppm [8] | inhibition at 20 ppm [12] | inhibition at 20 ppm [9] | inhibition at 20 ppm [10] | pest or weed control at 200 ppm [11] | inhibition at 20 ppm [13]

COc1ccc(Nc2cc(F)nc(F)c2)nc1C(=O)NC1(C)CCCC1 [Compound P-109, 6-[(2,6-difluoro-4-pyridyl)amino]-3-methoxy-N-(1-methylcyclopentyl)pyridine-2-carboxamide]
≥ 80%: pest or weed control at 200 ppm [1] | pest or weed control at 200 ppm [2] | inhibition at 20 ppm [3] | pest or weed control at 200 ppm [4] | pest or weed control at 200 ppm [5] | pest or weed control at 200 ppm [6] | inhibition at 20 ppm [7] | pest or weed control at 200 ppm [8] | inhibition at 20 ppm [9] | inhibition at 20 ppm [10]

COc1ccc(Nc2cc(F)cc(F)c2)nc1C(=O)NC1(C)CCC1 [Compound P-118, 6-(3,5-difluoroanilino)-3-methoxy-N-(1-methylcyclobutyl)pyridine-2-carboxamide]
≥ 80%: pest or weed control at 200 ppm [1] | pest or weed control at 200 ppm [2] | pest or weed control at 200 ppm [4] | pest or weed control at 200 ppm [5] | pest or weed control at 200 ppm [6] | inhibition at 20 ppm [7] | pest or weed control at 200 ppm [8] | inhibition at 20 ppm [12] | inhibition at 20 ppm [9] | inhibition at 20 ppm [10] | pest or weed control at 200 ppm [11] | inhibition at 20 ppm [13]

COc1ccc(Nc2cc(F)nc(F)c2)nc1C(=O)NC1(C)CCC1 [Compound P-127, 6-[(2,6-difluoro-4-pyridyl)amino]-3-methoxy-N-(1-methylcyclobutyl)pyridine-2-carboxamide]
≥ 80%: pest or weed control at 200 ppm [1] | pest or weed control at 200 ppm [2] | pest or weed control at 200 ppm [4] | pest or weed control at 200 ppm [5] | pest or weed control at 200 ppm [6] | inhibition at 20 ppm [7] | pest or weed control at 200 ppm [8] | inhibition at 20 ppm [9] | inhibition at 20 ppm [10]

COc1ccc(Nc2cccc(F)c2)nc1C(=O)NC(C)(C)C [Compound P-160, N-tert-butyl-6-(3-fluoroanilino)-3-methoxy-pyridine-2-carboxamide]
≥ 80%: pest or weed control at 200 ppm [1] | pest or weed control at 200 ppm [2] | inhibition at 20 ppm [3] | pest or weed control at 200 ppm [4] | pest or weed control at 200 ppm [5] | pest or weed control at 200 ppm [6] | inhibition at 20 ppm [7] | pest or weed control at 200 ppm [8] | inhibition at 20 ppm [12] | inhibition at 20 ppm [9] | inhibition at 20 ppm [10] | pest or weed control at 200 ppm [11] | inhibition at 20 ppm [13]

COc1ccc(Nc2cc(F)c(F)c(F)c2)nc1C(=O)NC(C)(C)C [Compound P-162, N-tert-butyl-3-methoxy-6-(3,4,5-trifluoroanilino)pyridine-2-carboxamide]
≥ 80%: pest or weed control at 200 ppm [1] | pest or weed control at 200 ppm [2] | inhibition at 20 ppm [3] | pest or weed control at 200 ppm [4] | pest or weed control at 200 ppm [5] | pest or weed control at 200 ppm [6] | inhibition at 20 ppm [7] | pest or weed control at 200 ppm [8] | inhibition at 20 ppm [12] | inhibition at 20 ppm [9] | inhibition at 20 ppm [10] | inhibition at 20 ppm [13]

COc1ccc(Nc2cc(F)cc(F)c2)nc1C(=O)NC(C)C(C)C (centres unmarked) [Compound P-168, 6-(3,5-difluoroanilino)-N-(1,2-dimethylpropyl)-3-methoxy-pyridine-2-carboxamide]
≥ 80%: inhibition at 20 ppm [14] | pest or weed control at 200 ppm [2] | pest or weed control at 200 ppm [4] | pest or weed control at 200 ppm [5] | inhibition at 20 ppm [7] | inhibition at 20 ppm [12] | inhibition at 20 ppm [9] | inhibition at 20 ppm [10] | inhibition at 20 ppm [13]

COc1ccc(Nc2cc(F)cc(F)c2)nc1C(=O)NC1(C2CCC2)CCC1 [Compound P-176, N-(1-cyclobutylcyclobutyl)-6-(3,5-difluoroanilino)-3-methoxy-pyridine-2-carboxamide]
≥ 80%: inhibition at 20 ppm [14] | pest or weed control at 200 ppm [2] | pest or weed control at 200 ppm [4] | pest or weed control at 200 ppm [5] | pest or weed control at 200 ppm [6] | inhibition at 20 ppm [7] | inhibition at 20 ppm [12] | inhibition at 20 ppm [9] | inhibition at 20 ppm [10] | pest or weed control at 200 ppm [11] | inhibition at 20 ppm [13]

COc1ccc(Nc2cc(F)nc(F)c2)nc1C(=O)NC1(C(C)(C)C)CCC1 [Compound P-185, N-(1-tert-butylcyclobutyl)-6-[(2,6-difluoro-4-pyridyl)amino]-3-methoxy-pyridine-2-carboxamide]
≥ 80%: pest or weed control at 200 ppm [1] | pest or weed control at 200 ppm [2] | pest or weed control at 200 ppm [4] | pest or weed control at 200 ppm [5] | pest or weed control at 200 ppm [6] | inhibition at 20 ppm [7] | pest or weed control at 200 ppm [8] | inhibition at 20 ppm [10]
